ChEMBL document CHEMBL3779792, “Anti-proliferative evaluation of monoterpene derivatives against leukemia” (Eur J Med Chem, 2016)
pEC50: −log10 of the molar value.

Legend:
[1] = Cytotoxicity against human NALM6 cells after 72 hrs by Cell-Titer Glo assay; format: functional, cell-based; settings: NALM-6, 72 h
[2] = Cytotoxicity against human SEM cells after 72 hrs by Cell-Titer Glo assay; format: functional, cell-based
Jurkat = assay: Cytotoxicity against human Jurkat cells after 72 hrs by Cell-Titer Glo assay; format: functional, cell-based
Raji = assay: Cytotoxicity against human Raji cells after 72 hrs by Cell-Titer Glo assay; format: functional, cell-based
BJ = assay: Cytotoxicity against human BJ cells after 72 hrs by Cell-Titer Glo assay; format: cell-based
HEK293 = assay: Cytotoxicity against HEK293 cells after 72 hrs by Cell-Titer Glo assay; format: cell-based; settings: Homo sapiens, HEK293, 72 h
HepG2 = assay: Cytotoxicity against human HepG2 cells after 72 hrs by Cell-Titer Glo assay; format: functional, cell-based; settings: HepG2, 72 h

SMILES	pEC50 [1]	pEC50 [2]	pEC50 (Jurkat)	pEC50 (Raji)	pEC50 (BJ)	pEC50 (HEK293)	pEC50 (HepG2)
C=C[C@@](C)(/C=C/c1ccc(O)cc1)CCC(O)C(C)(C)O (stereo not given in full)	< 4.36	< 4.44	< 4.31	< 4.58	< 4.44	< 4.44	< 4.28
COc1ccc(/C=C/[C@@](C)(/C=C/c2ccc(O)c(/C=C/C(=O)OCc3ccccc3)c2)CCC=C(C)C)cc1	< 4.36	< 4.44	< 4.31	< 4.58	< 4.44	< 4.44	< 4.58
COc1ccc(/C=C/[C@@](C)(/C=C/c2ccc(O)cc2)CCC=C(C)C)cc1	< 4.36	< 4.44	< 4.31	< 4.58	< 4.44	< 4.44	< 4.28
C=C[C@@](C)(/C=C/c1ccc(O)cc1)CC/C=C/C(=O)OCc1ccccc1	< 4.36	< 4.44	< 4.31	< 4.58	< 4.44	< 4.44	< 4.28
C=C[C@@](C)(/C=C/c1ccc(O)cc1)CC/C=C/C(=O)c1ccccc1	< 4.36	< 4.44	< 4.31	< 4.58	< 4.44	< 4.44	< 4.28
C=C[C@@](C)(/C=C/c1ccc(O)c(/C=C/C=C/c2ccccc2)c1)CCC=C(C)C	< 4.36	< 4.82	< 4.31	< 4.58	< 4.44	< 4.44	< 4.28
C=C[C@@](C)(/C=C/c1ccc(OS(=O)(=O)C(F)(F)F)cc1)CCC=C(C)C	< 4.36	< 4.44	< 4.31	< 4.58	< 4.44	< 4.44	< 4.28
COc1ccc(/C=C/[C@@](C)(/C=C/c2ccc(O)c(C=O)c2)CCC=C(C)C)cc1	< 4.36	5.34	< 4.31	4.89	5.01	5.64	< 4.58
C=C[C@@](C)(/C=C/c1ccc(O)cc1)CC/C=C/C#N	< 4.36	< 4.44	< 4.31	< 4.58	< 4.44	< 4.44	< 4.28
C=C[C@@](C)(/C=C/c1ccc(O)cc1)CC/C=C/C(=O)OCC	< 4.36	< 4.44	< 4.31	< 4.58	< 4.44	< 4.44	< 4.28
C=C[C@@](C)(/C=C/c1ccc(O)c(/C=C/c2ccc(F)cc2)c1)CCC=C(C)C	< 4.36	< 4.44	< 4.31	< 4.58	< 4.44	< 4.44	< 4.28
C=C[C@@](C)(/C=C/c1ccc(OC)cc1)CCC=C(C)C	< 4.36	< 4.44	< 4.31	< 4.58	< 4.44	< 4.44	< 4.28
C=C[C@@](C)(/C=C/c1ccc(O)cc1)CC/C=C(C)/C=C/C(=O)OCc1ccccc1	4.44	< 4.44	< 4.31	< 4.58	< 4.44	< 4.44	< 4.28
C=C[C@@](C)(/C=C/c1ccc(O)c(/C=C/c2ccc(Cl)c(Cl)c2)c1)CCC=C(C)C	5.12	< 5.12	< 4.31	< 4.58	< 4.89	< 4.44	< 4.28
C=C[C@@](C)(/C=C/c1ccc(O)cc1)CCCO	< 4.36	< 4.44	< 4.31	< 4.58	< 4.44	< 4.44	< 4.28
C=C[C@@](C)(/C=C/c1ccc(O)cc1)CC/C=C(\C)C(=O)OCC	< 4.36	< 4.44	< 4.31	< 4.58	< 4.44	< 4.44	< 4.28
C=C[C@@](C)(/C=C/c1ccc(O)cc1)CCC=C(C)C [BAKUCHIOL]	4.42	4.82	< 4.31	< 4.58	< 4.44	< 4.44	< 4.28
C=C[C@@](C)(/C=C/c1ccc(O)c(/C=C/C(=O)OCC)c1)CCC=C(C)C	4.68	< 4.44	< 4.31	< 4.58	< 4.44	< 4.44	< 4.28
C=C[C@](C)(CCCC(C)C)CCc1ccc(O)cc1	4.56	< 4.44	< 4.31	< 4.58	< 4.44	< 4.44	< 4.28
C=C[C@@](C)(/C=C/c1ccc(O)cc1)CCC=O	< 4.36	< 4.44	< 4.31	< 4.58	< 4.44	< 4.44	< 4.28
